ChEMBL document CHEMBL4823298, “In vitro anti-Leishmania activity and molecular docking of spiro-acridine compounds as potential multitarget agents against Leishmania infantum” (Bioorg Med Chem Lett, 2021)
Values after ≈ are worked out from the molar mass of the structure shown. Blank lines part the entries; values can stand above or below the compound they belong to.

What was measured:
[1] = Cytotoxicity against human erythrocytes; assay type: cell-based, Erythrocyte
Leishmania infantum [2] = experiment: Antileishmanial activity against promastigote form of Leishmania infantum assessed as inhibition of parasite growth; assay type: functional, organism-based
[3] = Inhibition of Leishmania Trypanothione reductase
Leishmania infantum [4] = experiment: Antileishmanial activity against axenic amastigote stage of Leishmania infantum assessed as reduction in parasite growth; assay type: functional, organism-based
Leishmania infantum [5] = experiment: Antileishmanial activity against axenic amastigote stage of Leishmania infantum assessed as reduction in parasite growth at 6.25 to 12.5 ug/ml; assay type: functional; conditions: dose 6.25-12.5 µg/ml; at 6.25 to 12.5 µg/mL
[6] = Cytotoxicity against PBMC (unknown origin)
[7] = Selectivity index, ratio of CC50 for PBMC (unknown origin) to EC50 for anti-leishmanial activity against axenic amastigote stage of Leishmania infantum; assay type: toxicity; conditions: read-out: Ratio CC50/EC50
Leishmania infantum [8] = experiment: Antileishmanial activity against axenic amastigote stage of Leishmania infantum assessed as reduction in parasite growth at 0.7812 ug/ml; assay type: functional
[9] = Inhibition of Leishmania donovani Topoisomerase 1

SMILES: N#CC1=CC2(c3ccccc3Nc3ccccc32)N(/N=C\c2ccc([N+](=O)[O-])cc2)C1=O
HC50 [1]: > 400 µg/mL | IC50 (Leishmania infantum [2]): 5.33 µg/mL (≈ 12.7 µM)

SMILES: N#CC1=CC2(c3ccccc3Nc3ccccc32)N(/N=C\c2ccc(F)cc2)C1=O
HC50 [1]: > 400 µg/mL | IC50 (Leishmania infantum [2]): 4.11 µg/mL (≈ 10.4 µM)

SMILES: N#CC1=CC2(c3ccccc3Nc3ccccc32)N(/N=C\c2ccc(Cl)cc2)C1=O
HC50 [1]: > 400 µg/mL | IC50 (Leishmania infantum [2]): 5.68 µg/mL (≈ 13.8 µM)

IC50 [3]: 3.8 µM
SMILES: CN(C)CCCN1c2ccccc2CCc2ccc(Cl)cc21 [CLOMIPRAMINE]

IC50 [3]: 4.88 µM
SMILES: OCCN1CCN(CCCN2c3ccccc3Sc3ccc(Cl)cc32)CC1 [PERPHENAZINE]

SMILES: N#CC1=CC2(c3ccccc3Nc3ccccc32)N(/N=C\c2ccccc2)C1=O
EC50 (Leishmania infantum [4]): 4.96 µg/mL (≈ 13.2 µM) | inhibition (INH) (Leishmania infantum [5]): 65% | HC50 [1]: > 400 µg/mL | CC50 [6]: 44.2 µg/mL (≈ 117 µM) | selectivity ratio [7]: 8.9 | IC50 (Leishmania infantum [2]): 2.04 µg/mL (≈ 5.42 µM) | inhibition at 0.7812 µg/mL (Leishmania infantum [8]): 21.7%

SMILES: CN(C)c1ccc(/C=N\N2C(=O)C(C#N)=CC23c2ccccc2Nc2ccccc23)cc1
EC50 (Leishmania infantum [4]): 0.974 µg/mL (≈ 2.32 µM) | inhibition (INH) (Leishmania infantum [5]): 65% | HC50 [1]: > 400 µg/mL | CC50 [6]: > 100 µg/mL | selectivity ratio [7]: > 103 | IC50 (Leishmania infantum [2]): 1.11 µg/mL (≈ 2.64 µM) | inhibition at 0.7812 µg/mL (Leishmania infantum [8]): 33.2%

SMILES: C[C@@H]1[C@H](O)[C@@H](C)/C=C/C=C/C=C/C=C/C=C/C=C/C=C/[C@H](O[C@@H]2O[C@H](C)[C@@H](O)[C@H](N)[C@@H]2O)C[C@@H]2O[C@](O)(C[C@@H](O)C[C@@H](O)[C@H](O)CC[C@@H](O)C[C@@H](O)CC(=O)O[C@H]1C)C[C@H](O)[C@H]2C(=O)O [AMPHOTERICIN B]
EC50 (Leishmania infantum [4]): 1.6 µg/mL (≈ 1.73 µM) | CC50 [6]: 7.63 µg/mL (≈ 8.26 µM) | selectivity ratio [7]: 4.78 | IC50 (Leishmania infantum [2]): 0.9 µg/mL (≈ 0.974 µM)

SMILES: N#CC1=CC2(c3ccccc3Nc3ccccc32)N(/N=C\c2c(Cl)cccc2Cl)C1=O
HC50 [1]: > 400 µg/mL | IC50 (Leishmania infantum [2]): 2.63 µg/mL (≈ 5.91 µM)

SMILES: N#CC1=CC2(c3ccccc3Nc3ccccc32)N(/N=C\c2ccc(Cl)cc2Cl)C1=O
HC50 [1]: > 400 µg/mL | IC50 (Leishmania infantum [2]): 3.89 µg/mL (≈ 8.74 µM)

SMILES: CCOc1cc(/C=N\N2C(=O)C(C#N)=CC23c2ccccc2Nc2ccccc23)ccc1O
HC50 [1]: > 400 µg/mL | IC50 (Leishmania infantum [2]): 6.06 µg/mL (≈ 13.9 µM)

IC50 [3]: 19 µM
SMILES: CCN(CC)CCCC(C)Nc1c2ccc(Cl)cc2nc2ccc(OC)cc12 (stereo unspecified) [QUINACRINE]

SMILES: N#CC1=CC2(c3ccccc3Nc3ccccc32)N(/N=C\c2ccccc2[N+](=O)[O-])C1=O
HC50 [1]: > 400 µg/mL | IC50 (Leishmania infantum [2]): 3.78 µg/mL (≈ 8.97 µM)

SMILES: CC[C@@]1(O)C(=O)OCc2c1cc1n(c2=O)Cc2cc3ccccc3nc2-1 [CAMPTOTHECIN]
EC50 [9]: 0.7 µM
